{"source": "paper PMC3823026", "about": "“Protein–Protein Interaction Regulates the Direction of Catalysis and Electron Transfer in a Redox Enzyme Complex” (Journal of the American Chemical Society, 2013)", "format_in_all_cases": "biochemical", "key": {"CymA [1]": {"target": "T1, CymA (Shewanella oneidensis, UniProt Q8E8S0)", "T1 construct": "full-length recombinant tetraheme CymA (24 kDa), isolated from MR-1, reconstituted in POPC/cardiolipin membrane, no Fcc3", "T1 sequence (Q8E8S0 1-187)": "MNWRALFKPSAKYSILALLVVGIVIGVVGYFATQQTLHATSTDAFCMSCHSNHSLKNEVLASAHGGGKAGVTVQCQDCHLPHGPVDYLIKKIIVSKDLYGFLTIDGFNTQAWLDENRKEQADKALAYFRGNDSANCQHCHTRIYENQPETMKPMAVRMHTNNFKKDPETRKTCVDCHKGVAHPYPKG", "experiment": "cyclic voltammetry, dithionite as reductant", "conditions": "1 mM dithionite, pH 7.4, 21 °C, no Fcc3"}, "CymA [2]": {"target": "T1, CymA", "experiment": "cyclic voltammetry, catalytic oxidation current with dithionite (menaquinone reduction)", "conditions": "1 mM dithionite, 1% (w/w) MQ-7, pH 7.4, 21 °C"}, "CymA-Fcc3 complex [3]": {"target": "T2, CymA-Fcc3 complex (Shewanella oneidensis, UniProt Q8E8S0)", "T2 construct": "isolated from MR-1; with Fumarate reductase (cytochrome), flavocytochrome c3", "T2 sequence (Q8E8S0 1-187)": "T1 sequence (Q8E8S0 1-187)", "T2 sequence (P83223 26-596 partner)": "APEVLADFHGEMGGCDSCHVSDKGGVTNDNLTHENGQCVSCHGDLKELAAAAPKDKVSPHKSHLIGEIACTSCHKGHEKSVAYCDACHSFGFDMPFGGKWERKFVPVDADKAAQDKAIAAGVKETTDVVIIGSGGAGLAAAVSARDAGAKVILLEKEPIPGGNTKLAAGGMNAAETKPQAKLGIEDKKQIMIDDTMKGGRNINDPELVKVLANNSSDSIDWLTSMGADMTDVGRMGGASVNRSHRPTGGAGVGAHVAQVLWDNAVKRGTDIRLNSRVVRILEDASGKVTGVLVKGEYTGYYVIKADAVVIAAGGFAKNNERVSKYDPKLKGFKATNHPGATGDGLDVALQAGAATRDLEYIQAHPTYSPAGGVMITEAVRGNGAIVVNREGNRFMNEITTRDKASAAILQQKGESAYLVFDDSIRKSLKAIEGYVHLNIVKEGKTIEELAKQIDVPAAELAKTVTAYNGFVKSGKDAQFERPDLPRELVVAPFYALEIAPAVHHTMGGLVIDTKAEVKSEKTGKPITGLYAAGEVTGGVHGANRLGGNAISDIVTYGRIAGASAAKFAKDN", "experiment": "cyclic voltammetry, catalytic fumarate reduction current on membrane-modified gold electrode", "conditions": "1 mM fumarate, 1% (w/w) MQ-7, pH 7.4, 21 °C; competitive quinol-site inhibitor"}, "CymA-Fcc3 complex [4]": {"target": "T2, CymA-Fcc3 complex", "experiment": "cyclic voltammetry, membrane-modified gold electrode, MQ-7 content varied", "conditions": "fumarate 1 mM as acceptor, pH 7.4, 21 °C; MQ-7 in membrane as % (w/w); Michaelis-Menten fit, constant not given"}, "Fcc3": {"target": "T3, Fcc3 (Shewanella oneidensis, UniProt P83223)", "T3 construct": "gene fccA; monomer in solution; with Membrane anchored tetraheme cytochrome c CymA", "T3 sequence (P83223 26-596)": "T2 sequence (P83223 26-596 partner)", "T3 sequence (Q8E8S0 1-187 partner)": "T1 sequence (Q8E8S0 1-187)", "experiment": "cyclic voltammetry, catalytic reduction current", "conditions": "1 mM fumarate, electrons from MQ-7 via CymA, pH 7.4, 21 °C"}}, "data": [{"smiles": "CC(C)=CCC/C(C)=C/CC/C(C)=C/CC/C(C)=C/CC/C(C)=C/CC/C(C)=C/CC/C(C)=C/CC1=C(C)C(=O)c2ccccc2C1=O", "note": "[Menaquinone-7]", "values": [{"measurement": "cyclic voltammetry, dithionite as reductant", "setting": "CymA [1]", "result": "CymA is only able to reduce MQ-7 in the absence of Fcc3"}]}, {"smiles": "CCCCCCCc1cc(O)c2ccccc2[n+]1[O-]", "note": "[2-n-heptyl-4-hydroxyquinoline N-oxide, 2-n-Heptyl-4-hydroxyquinoline N-oxide]", "values": [{"measurement": "inhibition at 10 μM", "setting": "CymA [2]", "result": "a catalytic oxidation signal appears that is inhibited by addition of HQNO"}, {"measurement": "inhibition at 10 μM", "setting": "CymA-Fcc3 complex [3]", "result": "The addition of HQNO inhibited catalytic fumarate reduction (Figure 2B)"}]}, {"smiles": "CC(C)=CCC/C(C)=C/CC/C(C)=C/CC/C(C)=C/CC/C(C)=C/CC/C(C)=C/CC/C(C)=C/Cc1c(C)c(O)c2ccccc2c1O", "note": "[menaquinol-7]", "values": [{"measurement": "cyclic voltammetry, membrane-modified gold electrode, MQ-7 content varied", "setting": "CymA-Fcc3 complex [4]", "result": "the CymA-Fcc3 complex is able to oxidize MQ-7 in SSMs"}]}, {"smiles": "O=C(O)/C=C/C(=O)O", "note": "[fumarate]", "values": [{"measurement": "cyclic voltammetry, catalytic reduction current", "setting": "Fcc3", "result": "addition of fumarate had a large effect on the appearance of the CV"}]}]}
